In patent US20120041030A1, “PYRIDINE THIO DERIVATIVE, AND PHARMACEUTICAL COMPOSITION WHICH CONTAINS SAME AND HAS ANTI-HELICOBACTER PYLORI ACTION” (priority 2009, published 2012):
Values after ≈ are worked out from the molar mass of the structure shown. Read-outs that look alike come from different tables or passages of the source.

What was measured:
Assay type in all cases: cell-based
[1] = test system: Helicobacter pylori (ATCC 43504); test: Antibacterial test (MIC) against Helicobacter pylori; settings: for minimum inhibitory concentration (MIC): Helicobacter pylori ATCC 43504; for MIC: Helicobacter pylori
Description: (§1) ATCC43504 which was a standard bacterial strain was used as Helicobacter pylori (H. pylori) to perform the test in vitro in a Columbia agar medium. The bacteria were cultured at 37° C. and a pH of 7.0 for three days. The minimum inhibitory concentration (MIC, μg/ml) was found on the fourth day. Each sample was dissolved in 1% DMSO to use. […] As bacteria for comparison, Gram negative bacteria, for example, E. coli (ATCC 10536 ATCC 25922), Klebsiella pneumonia (ATCC 10031), Proteus vulgaris (ATCC 13315), Pseudomonas aeruginosa (ATCC 9027) and Salmonella typhimurium (ATCC 13311) were used and Gram positive bacteria, for example, Staphylococcus aureus, MRSA (ATCC 33591), Staphylococcus epidermidis (ATCC 12228), Streptococcus pneumonia (ATCC 6301), Mycobacterium ranae (ATCC 110) and Enterococcus faecalis (VRE, ATCC 51575) were used.
(§2) The values in each table show minimum inhibitory concentrations (MIC, μg/ml).

[2] = test system: Streptococcus pneumonia (ATCC 6301); test: Antibacterial test (MIC), comparison bacteria; settings: for minimum inhibitory concentration (MIC): Gram positive; for MIC: Streptococcus pneumoniae, ATCC6301, Gram positive, read-out: minimum inhibitory concentration (MIC)
Description: as §1, §2

[3] = test system: Proteus vulgaris (ATCC 13315); test: Antibacterial test (MIC), comparison bacteria; settings: for minimum inhibitory concentration (MIC): Gram negative; for MIC: ATCC13315, Gram negative, read-out: minimum inhibitory concentration (MIC)
Description: as §1, §2

[4] = test system: Klebsiella pneumonia (ATCC 10031); test: Antibacterial test (MIC), comparison bacteria; settings: for minimum inhibitory concentration (MIC): Gram negative; for MIC: Klebsiella pneumoniae, ATCC10031, Gram negative, read-out: minimum inhibitory concentration (MIC)
Description: as §1, §2

[5] = test system: Pseudomonas aeruginosa (ATCC 9027); test: Antibacterial test (MIC), comparison bacteria; settings: for minimum inhibitory concentration (MIC): Gram negative; for MIC: ATCC9027, Gram negative, read-out: minimum inhibitory concentration (MIC)
Description: as §1, §2

[6] = test system: Mycobacterium ranae (ATCC 110); test: Antibacterial test (MIC), comparison bacteria; settings: for minimum inhibitory concentration (MIC): Gram positive; for MIC: ATCC110, Gram positive, read-out: minimum inhibitory concentration (MIC)
Description: as §1, §2

[7] = test system: Salmonella typhimurium (ATCC 13311); test: Antibacterial test (MIC), comparison bacteria; settings: Gram negative; for MIC: Salmonella enterica, read-out: minimum inhibitory concentration (MIC)
Description: as §1, §2

[8] = test system: Escherichia coli (ATCC 25922); test: Antibacterial test (MIC), comparison bacteria; settings: for minimum inhibitory concentration (MIC): Gram negative; for MIC: ATCC25922, Gram negative, read-out: minimum inhibitory concentration (MIC)
Description: as §1, §2

[9] = test system: Escherichia coli (ATCC 10536); test: Antibacterial test (MIC), comparison bacteria; settings: for minimum inhibitory concentration (MIC): Gram negative; for MIC: ATCC10536, Gram negative, read-out: minimum inhibitory concentration (MIC)
Description: as §1, §2

[10] = test system: Enterococcus faecalis (VRE, ATCC 51575); test: Antibacterial test (MIC), comparison bacteria; settings: Gram positive; for MIC: read-out: minimum inhibitory concentration (MIC)
Description: as §1, §2

[11] = test system: Staphylococcus epidermidis (ATCC 12228); test: Antibacterial test (MIC), comparison bacteria; settings: for minimum inhibitory concentration (MIC): Gram positive; for MIC: ATCC12228, Gram positive, read-out: minimum inhibitory concentration (MIC)
Description: as §1, §2

[12] = test system: Staphylococcus aureus (MRSA, ATCC 33591); test: Antibacterial test (MIC), comparison bacteria; settings: Gram positive; for MIC: read-out: minimum inhibitory concentration (MIC)
Description: as §1, §2

[13] = Columbia agar medium, 37° C., pH 7.0, cultured three days, MIC found on the fourth day
[14] = ATCC43504, 72 h, pH 7, Helicobacter pylori ATCC 43504, Columbia agar medium, 37° C., pH 7.0, cultured three days, MIC found on the fourth day, read-out: minimum inhibitory concentration (MIC)

minimum inhibitory concentration (MIC) [1, 13] | minimum inhibitory concentration (MIC) [2] | minimum inhibitory concentration (MIC) [5] | minimum inhibitory concentration (MIC) [7] | minimum inhibitory concentration (MIC) [10] | minimum inhibitory concentration (MIC) [12] | MIC [2] | MIC [3] | MIC [4] | MIC [5] | MIC [6] | MIC [7] | MIC [8] | MIC [9] | MIC [10] | MIC [11] | MIC [12] | MIC [1, 14] | Structure (SMILES) | also measured
0.1 µg/mL | 100< μg/ml | 100< μg/ml | 100< μg/ml | 100< μg/ml | 100< μg/ml |  |  |  |  |  |  |  |  |  |  |  |  | Cc1c(SCCOCCOCC(F)(F)F)ccnc1SCc1nc2ccccc2[nH]1.Cl [Example 8] | minimum inhibitory concentration (MIC) [3]: 100< μg/ml; minimum inhibitory concentration (MIC) [4]: 100< μg/ml; minimum inhibitory concentration (MIC) [6]: 100< μg/ml; minimum inhibitory concentration (MIC) [8]: 100< μg/ml; minimum inhibitory concentration (MIC) [9]: 100< μg/ml; minimum inhibitory concentration (MIC) [11]: 100< μg/ml
 |  |  |  |  |  | > 100 µg/mL | > 100 µg/mL | > 100 µg/mL | > 100 µg/mL | > 100 µg/mL | > 100 µg/mL | > 100 µg/mL | > 100 µg/mL | > 100 µg/mL | > 100 µg/mL | > 100 µg/mL |  | Cc1c(OCCCCCCCCO)ccnc1SCc1nc2ccccc2[nH]1 [Example 13, 2-[[[4-(8-hydroxy-1-octyloxy)-3-methyl-2-pyridyl]thio]-methyl]-1H-benzimidazole] | MIC ([1]; summary of Tables 2 and 3): 0.003 µg
 |  |  |  |  |  | > 100 µg/mL | > 100 µg/mL | > 100 µg/mL | > 100 µg/mL | > 100 µg/mL | > 100 µg/mL | > 100 µg/mL | > 100 µg/mL | > 100 µg/mL | > 100 µg/mL | > 100 µg/mL | 0.1 µg/mL | CCCCCOc1ccnc(SCc2nc3ccccc3[nH]2)c1C.Cl [Example 10, 2-[[(4-pentyloxy-3-methyl-2-pyridyl)thio]-methyl]-1H-benzimidazole hydrochloride] | 
0.3 µg/mL (≈ 0.839 µM) | 100< μg/ml | 100< μg/ml | 100< μg/ml | 100< μg/ml | 100< μg/ml |  |  |  |  |  |  |  |  |  |  |  |  | CCCCCSc1ccnc(SCc2nc3ccccc3[nH]2)c1C [Example 7, 2-[[(4-thiopentyl-3-methyl-2-pyridyl)thio]-methyl]-1H-benzimidazole] | minimum inhibitory concentration (MIC) [3]: 100< μg/ml; minimum inhibitory concentration (MIC) [4]: 100< μg/ml; minimum inhibitory concentration (MIC) [6]: 100< μg/ml; minimum inhibitory concentration (MIC) [8]: 100< μg/ml; minimum inhibitory concentration (MIC) [9]: 100< μg/ml; minimum inhibitory concentration (MIC) [11]: 100< μg/ml
3.0 µg/mL | 100< μg/ml | 100< μg/ml | 100< μg/ml | 100< μg/ml | 100< μg/ml |  |  |  |  |  |  |  |  |  |  |  |  | CSc1ccnc(SCc2nc3ccccc3[nH]2)c1C.Cl [Example 5, 2-[[(4-thiomethyl-3-methyl-2-pyridyl)thio]-methyl]-1H-benzimidazole hydrochloride] | minimum inhibitory concentration (MIC) [3]: 100< μg/ml; minimum inhibitory concentration (MIC) [4]: 100< μg/ml; minimum inhibitory concentration (MIC) [6]: 100< μg/ml; minimum inhibitory concentration (MIC) [8]: 100< μg/ml; minimum inhibitory concentration (MIC) [9]: 100< μg/ml; minimum inhibitory concentration (MIC) [11]: 100< μg/ml
 |  |  |  |  |  | > 100 µg/mL | > 100 µg/mL | > 100 µg/mL | > 100 µg/mL | > 100 µg/mL | > 100 µg/mL | > 100 µg/mL | > 100 µg/mL | > 100 µg/mL | > 100 µg/mL | > 100 µg/mL | 0.1 µg/mL (≈ 0.28 µM) | CCOCCCOc1ccnc(SCc2nc3ccccc3[nH]2)c1C [Example 11] | 
 |  |  |  |  |  | > 100 µg/mL | > 100 µg/mL | > 100 µg/mL | > 100 µg/mL | > 100 µg/mL | > 100 µg/mL | > 100 µg/mL | > 100 µg/mL | > 100 µg/mL | > 100 µg/mL | > 100 µg/mL |  | COCCCCCCCCOc1ccnc(SCc2nc3ccccc3[nH]2)c1C.Cl [Example 14, 2-[[[4-(8-methoxy-1-octyloxy]-3-methyl-2-pyridyl]thio]-methyl]-1H-benzimidazole hydrochloride] | 

Continued, compound first:

Structure (SMILES) | minimum inhibitory concentration (MIC) [1, 13] | minimum inhibitory concentration (MIC) [2] | minimum inhibitory concentration (MIC) [5] | minimum inhibitory concentration (MIC) [7] | minimum inhibitory concentration (MIC) [10] | minimum inhibitory concentration (MIC) [12] | MIC [2] | MIC [3] | MIC [4] | MIC [5] | MIC [6] | MIC [7] | MIC [8] | MIC [9] | MIC [10] | MIC [11] | MIC [12] | MIC [1, 14] | also measured
CCCSc1ccnc(SCc2nc3ccccc3[nH]2)c1C.Cl [Example 6, 2-[[(4-thiopropyl-3-methyl-2-pyridyl)thio]-methyl]-1H-benzimidazole hydrochloride] | 0.3 µg/mL | 100< μg/ml | 100< μg/ml | 100< μg/ml | 100< μg/ml | 100< μg/ml |  |  |  |  |  |  |  |  |  |  |  |  | minimum inhibitory concentration (MIC) [3]: 100< μg/ml; minimum inhibitory concentration (MIC) [4]: 100< μg/ml; minimum inhibitory concentration (MIC) [6]: 100< μg/ml; minimum inhibitory concentration (MIC) [8]: 100< μg/ml; minimum inhibitory concentration (MIC) [9]: 100< μg/ml; minimum inhibitory concentration (MIC) [11]: 100< μg/ml
Cc1c(SCCCCCCCCO)ccnc1SCc1nc2ccccc2[nH]1 [Example 2, 2-[[[4-[(8-hydroxy-octyl)thio]-3-methyl-2-pyridyl]thio]methyl]-1H-benzimidazole] |  |  |  |  |  |  | > 100 µg/mL | > 100 µg/mL | > 100 µg/mL | > 100 µg/mL | > 100 µg/mL | > 100 µg/mL | > 100 µg/mL | > 100 µg/mL | > 100 µg/mL | > 100 µg/mL | > 100 µg/mL |  | MIC ([1]; summary of Tables 2 and 3): 0.003 µg
CC1(C)S[C@@H]2[C@H](NC(=O)[C@H](N)c3ccc(O)cc3)C(=O)N2[C@H]1C(=O)O [AMPC, Amoxicillin, reference compound] | 0.06 µg/mL (≈ 0.164 µM) | 0.01 µg/mL (≈ 0.0274 µM) | 100< μg/ml | 0.3 µg/mL (≈ 0.821 µM) | 0.3 µg/mL (≈ 0.821 µM) | 0.1 µg/mL (≈ 0.274 µM) |  |  |  |  |  |  |  |  |  |  |  |  | 
COCCCCCCCCSc1ccnc(SCc2nc3ccccc3[nH]2)c1C.Cl [Example 3, 2-[[[4-[(8-methoxy-1-octyl]thio]-3-methyl-2-pyridyl]thio]methyl]-1H-benzimidazole hydrochloride] |  |  |  |  |  |  | > 100 µg/mL | > 100 µg/mL | > 100 µg/mL | > 100 µg/mL | > 100 µg/mL | > 100 µg/mL | > 100 µg/mL | > 100 µg/mL | > 100 µg/mL | > 100 µg/mL | > 100 µg/mL | 0.1 µg/mL | 
CC[C@H]1OC(=O)[C@H](C)[C@@H](O[C@H]2C[C@@](C)(OC)[C@@H](O)[C@H](C)O2)[C@H](C)[C@@H](O[C@@H]2O[C@H](C)C[C@H](N(C)C)[C@H]2O)[C@](C)(OC)C[C@@H](C)C(=O)[C@H](C)[C@@H](O)[C@]1(C)O [CAM, Clarithromycin, reference compound] |  |  |  |  |  |  | 0.02 µg/mL (≈ 0.0267 µM) | 100 µg/mL (≈ 134 µM) |  | > 100 µg/mL |  | 25 µg/mL (≈ 33.4 µM) | 50 µg/mL (≈ 66.8 µM) | 50 µg/mL (≈ 66.8 µM) | 0.1 µg/mL (≈ 0.134 µM) |  | 0.1 µg/mL (≈ 0.134 µM) | 0.1 µg/mL (≈ 0.134 µM) | 
CCCOc1ccnc(SCc2nc3ccccc3[nH]2)c1C.Cl [Example 4, 2-[[(4-n-propoxy-3-methyl-2-pyridyl)thio]-methyl]-1H-benzimidazole hydrochloride] |  |  |  |  |  |  | > 100 µg/mL | > 100 µg/mL | > 100 µg/mL | > 100 µg/mL | > 100 µg/mL | > 100 µg/mL | > 100 µg/mL | > 100 µg/mL | > 100 µg/mL | > 100 µg/mL | > 100 µg/mL | 0.3 µg/mL | 
COCCCCSc1ccnc(SCc2nc3ccccc3[nH]2)c1C.Cl [Example 1, 2-[[[4-[(4-methoxy-butyl]thio]-3-methyl-2-pyridyl]thio]methyl]-1H-benzimidazole hydrochloride] |  |  |  |  |  |  | > 100 µg/mL | > 100 µg/mL | > 100 µg/mL | > 100 µg/mL | > 100 µg/mL | > 100 µg/mL | > 100 µg/mL | > 100 µg/mL | > 100 µg/mL | > 100 µg/mL | > 100 µg/mL | ≤ 0.03 µg/mL | 
